Data reported in the NIST ThermoML archive (doi:10.1021/je5007532).
± gives the expanded uncertainty stated by the source.

Assays:
[1] = for viscosity: 100 kPa, Falling or rolling sphere viscometry; for viscosity / speed of sound / mass density: Liquid; for speed of sound / mass density: 101 kPa; for speed of sound: Sing-around technique in a fixed-path interferometer; for mass density: Vibrating tube method; for surface tension liquid-gas: 294.4 K, Pendant drop shape
[2] = xn = mol fraction of the nth substance listed; conditions: x2 = 0; for viscosity: 100 kPa, Falling or rolling sphere viscometry; for viscosity / speed of sound / mass density: Liquid; for speed of sound / mass density: 101 kPa; for speed of sound: Sing-around technique in a fixed-path interferometer; for mass density: Vibrating tube method

CC(C)CC(C)(C)C [2,2,4-trimethylpentane]
[1]
Conditions | mass density [kg/m3] | speed of sound [m/s] | viscosity [mPa·s]
293.15 K | 691.84 ± 0.17 | 1103.2 ± 0.8 | 0.501 ± 0.004
298.15 K | 687.7 ± 0.17 | 1082 ± 0.8 | 0.473 ± 0.004
303.15 K | 683.59 ± 0.17 | 1061.4 ± 0.8 | 0.447 ± 0.004
308.15 K | 679.4 ± 0.17 | 1040.4 ± 0.8 | 0.423 ± 0.004
313.15 K | 675.23 ± 0.17 | 1020 ± 0.8 | –
318.15 K | 670.98 ± 0.17 | 999.3 ± 0.8 | 0.38 ± 0.004
323.15 K | 666.75 ± 0.18 | 979.2 ± 0.8 | 0.361 ± 0.003
328.15 K | 662.44 ± 0.18 | 958.7 ± 0.8 | 0.343 ± 0.003
333.15 K | 658.16 ± 0.18 | 938.6 ± 0.8 | 0.326 ± 0.005
338.15 K | 653.8 ± 0.18 | 918.7 ± 0.8 | –
343.15 K | 649.4 ± 0.18 | 899 ± 0.6 | –

Conditions | surface tension liquid-gas [mN/m]
[1] | 18.7 ± 0.4

CCCCCCC [heptane]
[1]
Conditions | mass density [kg/m3] | speed of sound [m/s] | viscosity [mPa·s]
293.15 K | 683.85 ± 0.16 | 1151.7 ± 0.8 | 0.41 ± 0.004
298.15 K | 679.61 ± 0.16 | 1130.1 ± 0.8 | 0.389 ± 0.004
303.15 K | 675.35 ± 0.16 | 1109.1 ± 0.7 | 0.368 ± 0.003
308.15 K | 671.05 ± 0.16 | 1087.5 ± 0.7 | 0.349 ± 0.003
313.15 K | 666.73 ± 0.16 | 1066.6 ± 0.7 | –
318.15 K | 662.38 ± 0.16 | 1045.4 ± 0.7 | 0.315 ± 0.003
323.15 K | 657.99 ± 0.17 | 1024.7 ± 0.7 | 0.3 ± 0.003
328.15 K | 653.57 ± 0.17 | 1003.6 ± 0.7 | 0.284 ± 0.003
333.15 K | 649.11 ± 0.17 | 983 ± 0.7 | 0.271 ± 0.005
338.15 K | 644.6 ± 0.17 | 962.3 ± 0.7 | –

Conditions | surface tension liquid-gas [mN/m]
[1] | 20.3 ± 0.3

CCCCCCC [heptane] + CC(C)CC(C)(C)C
[2]
Conditions | mass density [kg/m3] | speed of sound [m/s] | viscosity [mPa·s]
293.15 K | 683.85 ± 0.16 | 1151.7 ± 0.8 | 0.41 ± 0.004
298.15 K | 679.61 ± 0.16 | 1130.1 ± 0.8 | 0.389 ± 0.004
303.15 K | 675.35 ± 0.16 | 1109.1 ± 0.7 | 0.368 ± 0.003
308.15 K | 671.05 ± 0.16 | 1087.5 ± 0.7 | 0.349 ± 0.003
313.15 K | 666.73 ± 0.16 | 1066.6 ± 0.7 | –
318.15 K | 662.38 ± 0.16 | 1045.4 ± 0.7 | 0.315 ± 0.003
323.15 K | 657.99 ± 0.17 | 1024.7 ± 0.7 | 0.3 ± 0.003
328.15 K | 653.57 ± 0.17 | 1003.6 ± 0.7 | 0.284 ± 0.003
333.15 K | 649.11 ± 0.17 | 983 ± 0.7 | 0.271 ± 0.005
338.15 K | 644.6 ± 0.17 | 962.3 ± 0.7 | –

Conditions | surface tension liquid-gas [mN/m]
[2], 294.4 K, Pendant drop shape | 20.3 ± 0.3
